Laboratory results: PubChem BioAssay AID602480 (National Center for Advancing Translational Sciences (NCATS), 2012)
In brackets after ≈: the same amount, converted by molar mass.

Tested on: aqueous solubility in PBS
Assay: qHTS Assay for Inhibitors of Bacillus subtilis Sfp phosphopantetheinyl transferase (PPTase): Aqueous Solubility in PBS
From the text: PPTases are responsible for the activation of a variety of pathogen-associated virulence factors. Among these compounds are toxins such as mycolactone from Mycobacterium ulcerans, siderophores such as vibriobactin from Vibrio cholerae or mycobactin from Mycobacterium tuberculosis, as well as the mycolic acids which form the waxy cell wall of Mycobacteria. The biosyntheses of these natural products are considered attractive targets for drug design. After a large qHTS and several follow-up assays, a small molecule was identified and this in vitro ADME assay serves to better characterize its properties.
This profiling assay looks at the […] of a small molecule in PBS (pH 7.4). This is an important parameter as it has significant impact on in vivo results, such as uptake, distribution, transport, and eventually bioavailability. This outcome is also of utmost importance for decisions concerning assay data and SAR strategy.
NIH Chemical Genomics Center [NCGC]
NIH Molecular Libraries Probe Centers Network [MLPCN]
Assay Submitter (PI): Michale Burkart, University of California, San Diego
1. 8ul of reference and test compound stock solution were added to 392ul 100mM phosphate buffer (pH 7.4)
2. Sample tubes were shaken for 1 hr (1000 rpm) at room temperature
3. […]
5. Concentration of the supernatant was determined by LC-UV or LC-MS/MS

Compound: COc1ccnc(NC(=S)N2CCN(c3ncc(C(F)(F)F)cc3Cl)CC2)c1
- solubility: 20 µM (≈ 8.64 µg/mL)
